For series [1] the following is noted: cited from earlier work.
The test system of series [2] is Jurkat cells. The series is described as follows: Confocal cell microscopy of conjugate uptake. It is filed as cell-based, human. The settings on record: 6.25 μM conjugate, 37° C., 10 minutes. On the procedure:
Cells incubated with fluorescent polyarginine peptides were prepared as described above for binding assays and analyzed at the Cell Sciences Imaging Facility (Stanford University, Stanford, Calif.) using a scanning, single beam laser confocal microscope, with an excitation wavelength of 488 nm (argon-ion laser) and an emission band-width of 510-550 using a band-pass filter. Conjugates (6.25 μM) containing tat(49-57), R7, or r7 coupled to fluorescein were incubated with Jurkat cells for 37° C. for 10 minutes. FIGS. 2A-2F show results for emitted fluorescence (FIGS. 2A-2C) and transmitted light (2D—2F) for tat(49-57) (FIGS. 2A and […]), R7 (FIGS. 2B and 2E), and r7 (FIGS. 2C and 2F).

In series [3] the test system is Jurkat cells. The series is described as follows: Kinetics of uptake (Michaelis-Menten, Lineweaver-Burk). It is filed as cell-based, human. The settings on record: for Km / VMAX: fluorescent conjugates, Jurkat cells, 0.5, 1, 2 and 4 minutes at 4° C., Lineweaver-Burk.
Experimental: Peptides were incubated with cells for 0.5, 1, 2, and 4 minutes at 4° C. in triplicate, in 50 μL of PBS/FCS in 96-well plates. At the end of incubation, the reaction was quenched by diluting the samples in 5 mL of PBS/FCS, centrifuging and washing once with PBS/FCS, trypsin/EDTA, and finally again with PBS/FCS, and taking up the pellets in PBS/FCS containing propidium iodide for analysis on a FACScan. FACS data were fitted to the Line-weaver-Burk equation for Michaelis-Menten kinetics.
The next series relates to cells. The series is described as follows: Length range studies: uptake of longer polyarginine conjugates (FACS, mean fluorescence of live cells). It is filed as cell-based. On the procedure: To examine the effect of substantially longer polymers, a mixture of L-arginine polymers with an average molecular weight of 12,000 daltons (≈100 amino acids) was also tested (Example 5). However, to avoid precipitation problems, the level of serum in the assay had to be reduced for testing conjugates with the ≈12,000 MW polymer material. Cell uptake was analyzed by FACS as above, and the mean fluorescence of live cells was measured. Cytotoxicity of each conjugate was also measured.
Suspension cells ([…]) were incubated for varying times, at 37° C., 23° C., or 4° C., with a range of concentrations of peptides or conjugates in PBS pH 7.2 containing 2% fetal calf serum (PBS/FCS) in 96 well plates. […] The pelleted cells were resuspended in PBS containing 2% FCS and 0.1% propidium iodide and analyzed on a FACScan (Becton Dickenson, Mountain View, Calif.). […]
The following homopolymers of polyarginine were tested by the fluorescence assay in Example 2, with incubation at 37° C. for 15 minutes prior to cell pelleting: r9, R9, R15, R20, R25, and R30. […] The cells were analyzed by FACS, and the mean fluorescence of the live cells was measured. Cytotoxicity of each conjugate was also measured by calculating the percentage of cells that stained with propidium iodide, which is characteristic of cell death. […]

The subject of another series is E. coli strain HB101. Briefly: Transport into bacterial cells (gram-negative). It is filed as cell-based. The conditions noted are these: 30 minutes at 37° C., 3 to 50 μM conjugate. How it is done:
Gram-negative bacteria (E. coli strain HB101) and gram-positive bacteria (Strep. bovis) were grown in appropriate media in logarithmic phase. Cell cultures (4×10^8 per mL) were incubated for 30 minutes at 37° C. with varying concentrations of fluorescent conjugates containing linear polymers of L-arginine (R4 through R9), D-arginine (r4 through r9), or L-lysine (K9) at conjugate concentrations of 3 to 50 μM. The cells were washed and taken up in PBS-containing propidium iodide (to distinguish dead cells) and analyzed by FACS and fluorescent microscopy. Results are shown in FIGS. 5A-5C as discussed above.

A short description of series [4]: Biological half-life / proteolysis by serum enzymes in uptake assay. It is filed as in vitro ADME. The settings on record: serum-containing assay.
The test system of series [5] is Jurkat cells. Briefly: Fluorescence assay of cellular uptake of peptide-fluorescein conjugates (FACS). It is filed as cell-based, human. The settings on record: FIGS. 1A-1C.
Series [6] concerns gamma-IFN secretion by murine T cell line (clone 11.3). Briefly: Inhibition of gamma-IFN production by conjugates. It is filed as cell-based. How it is done: 3. Gamma-IFN Assay. The amount of gamma interferon secreted by a murine T cell line (clone 11.3) was measured by incubating 10^5 T cells with varying amounts of antigen (peptide consisting of residues 110-121 of sperm whale myoglobin) and histocompatible spleen cells from DBA/2 mice (H-2d, 5×10^5), which act as antigen-presenting cells (APCs), in 96 well plates. After incubation for 24 hours at 37° C., 100 μL of the supernatants were transferred to microtiter plates coated with commercially available anti-gamma-IFN monoclonal antibodies (Mab) (Pharmingen, San Diego, Calif.). After incubation for an hour at room temperature, the plates were washed with PBS containing 1% fetal calf serum and 0.1% Tween®20, after which a second, biotinylated gamma-IFN Mab was added. After a second hour of incubation, the plates were washed as before, and europium (Eu)-streptavidin (Delphia-Pharmacia) was added. Again, after an hour of incubation, an acidic buffer was added to release Eu, which was measured by time-resolved fluorometry on a Delphia plate reader.
The ability of PNA-polyarginine conjugates to inhibit secretion of gamma-IFN was assayed by adding various concentrations of the above gamma-IFN conjugates with suboptimal doses of peptide antigen (0.5 μM), to a mixture of clone 11.3 T cells and histocompatible spleen cells.
After 24 hours, aliquots of the cultured supernatants were taken, and the amount of gamma-IFN was measured using the fluorescent binding assay described in section 3 above.

Series [7] concerns the target T1, RAF-1 in V7 immunocomplex (Homo sapiens, UniProt P04049).
T1 construct: T-cells which had been isolated by standard methods; endogenous in cells; host or cells: T-cells isolated by standard methods
Briefly: Anti-V7 immunoprecipitation from peptide-treated T-cells. It is filed as cell-based. How it is done: The conjugate was added (final concentration ≈10 μM) to T-cells which had been isolated by standard methods, and was incubated at 37° C. for several hours to overnight. Cells were lysed using detergent (1% Triton X-100). DNA was removed, and the soluble (protein-containing) fraction was subjected to immunoprecipitation with an anti-V7 murine monoclonal antibody in combination with goat anti-mouse IgG. RAF-1 is a kinase that associates with, and is inactivated by association with, V7.

In series [8] the target is T2, complex consisting of RAF-1 and p21 Ras (Homo sapiens, UniProt P04049).
T2 construct: T-cells which had been isolated by standard methods; endogenous in cells; host or cells: T-cells isolated by standard methods
Briefly: Disruption of RAF-1/p21 Ras complex in peptide-treated T-cells. It is filed as cell-based. The conditions noted are these: same peptide treatment.

The next series addresses T3, RAF-1 kinase (Homo sapiens, UniProt P04049).
T3 construct: Anti-RAF-1 precipitates of T cells; endogenous in cells; host or cells: T cells
The series is described as follows: RAF-kinase activity in anti-RAF-1 precipitates of T cells. It is filed as cell-based. The conditions noted are these: anti-RAF-1 precipitates of exposed T cells. An excerpt: In a second study, the V7 peptide portion of the V7-poly-arginine conjugate was phosphorylated in vitro using protein kinase C.

Another series concerns cytotoxic T-lymphocytes. Briefly: Transport of large protein antigen into APCs: stimulation of CTLs. The settings on record: 10 μM on B-cells (APCs). It is filed as cell-based. On the procedure:
The molar ratio of peptide conjugated to ovalbumin was quantified by amino acid analysis. The conjugate product was designated OV-R7. The conjugate was added (final concentration 10 μM) to B-cells, also referred to as antigen-presenting cells (APCs), which were isolated according to standard methods. The APCs were incubated with OV-R7, and then were added to a preparation of cytotoxic T-lymphocytes isolated by standard methods.

In another series the test system is albumin-specific CTLs. The series is described as follows: Dendritic cells exposed to conjugate and injected into mice: CTL response in blood. It is filed as in vivo. The conditions noted are these: dendritic cells exposed to antigen, then injected into mice. How it is done:
In another experiment, histocompatible dendritic cells (a specific type of APC) were exposed to albumin-R7 conjugates and were then injected into mice. […] Control mice were given dendritic cells that had been exposed to unmodified albumin.

We go through eight molecules from patent US6495663B1, “Method and composition for enhancing transport across biological membranes” (The Board of Trustees of the Leland Stanford Junior …, priority 1997, dated 2002).

“Also recorded” adds a separate entry of the source. No end group written: not given here. *: point of attachment. FITC = O=C1OC2(c3ccc(O)cc3Oc3cc(O)ccc32)c2ccc(NC(=S)*)cc21; Ahx = NCCCCCC(=O)O

Turning to `CC(=O)O[C@@]12CO[C@@H]1C[C@H](O)[C@@]1(C)C(=O)[C@H](O)C3=C(C)[C@@H](OC(=O)[C@H](O)[C@@H](NC(=O)OC(C)(C)C)c4ccccc4)C[C@@](O)([C@@H](OC(=O)c4ccccc4)[C@H]21)C3(C)C` [taxotere], the water solubility in series [1] is 6 to 7 µg/mL.

As for “Arg-Lys-Lys-Arg-Arg-Gln-Arg-Arg-Arg (RKKRRQRRR; also: fluorescein conjugate, place not given here) [tat 49-57, polypeptide comprising HIV tat residues 49-57, fluorescein conjugate, reference compound]”, the “fluorescence of cytosol (confocal micrographs)” value with Jurkat cells [2] is on record as “only weak staining”. Further, in the series with Jurkat cells [3], the Km came to 722 µM and the VMAX was found to be 0.38 µM/s.

Regarding H3N-rrrrrrrrr-COO^-, the “fluorescence of cytosol (confocal micrographs)” value with Jurkat cells [2] was “brightly fluorescent”. Further, the “rate of entering cells” value in the series with cells (FIG. 3 data) is given as “higher rates than polymers containing 15 or more contiguous arginines”. Moreover, the “uptake versus longer polymers” value with cells (higher concentrations (>3 μM), 37° C., 15 minutes) is listed as “significantly better than for the longer polymers”. For the same molecule, the Michaelis-Menten constant (Km) with Jurkat cells [3] was 7.21 µM; with Jurkat cells [3] (listed as nonamer of D-arginine), 7 µM. Moreover, the VMAX in the series on Jurkat cells [3] came to 0.39 µM/s. The “apparent affinity (Km) relative to tat peptide” value in the series on Jurkat cells [3] (greater apparent affinity than tat(49-57)) is reported as “approximately 100 fold”. The “uptake levels by E. coli HB 101 cells” value with E. coli strain HB101 is “much higher uptake levels”. Besides, in series [4], the proteolytic degradation result is “did not show evidence of proteolytic degradation”.

With “K9: nonamer of L-Lys residues, fluorescein conjugate ({FITC-Ahx}-KKKKKKKKK; also: fluorescein conjugate, place not given here)”, the “cellular uptake (transport of fluorescein into cells)” value is recorded as “very little uptake” in the series with Jurkat cells [5] and “ineffective as a transporter” with Jurkat cells [5] (listed as poly-Lys nonamer).

“NH2-rrrrrrr-AACGCTACAC-COOH (PNA, D-arginine heptamer conjugate, chemistry not fully specified) [sense PNA-r7]”: the “inhibition of gamma-IFN secretion” value in series [6] (24 hours, peptide antigen 0.5 μM, equivalent molar amounts) is recorded as “no inhibition”.

As for “NH2-rrrrrrr-GTGTAGCGTT-COOH (all peptide nucleic acid (PNA); D-arginine heptamer attached at the N-terminus, further chemistry not fully specified) [antisense PNA-r7 conjugate]”, in series [6] (24 hours, peptide antigen 0.5 μM), the “reduction in IFN secretion” value is recorded as “over 70%”. In series [6] (FIG. 7), the “conjugate level effective to block γ-IFN secretion” value is recorded as “above 10 μM”.

Take “V7 peptide: V7 cytoplasmic tail sequence KLSTLRSNT with 7 arginine residues attached to its C-terminus (KLSTLRSNTRRRRRRR)”: in series [7], the “binding to RAF-1” value was “can bind to RAF-1”. Also, the “RAF-1 co-precipitation with V7” value in series [7] (≈10 μM on T-cells, 37° C., several hours to overnight) is given as “RAF-1 protein was eliminated from the V7 immuno-complex; also recorded: RAF-1 protein was eliminated from the V7 immunocomplex”. In series [8], the “disruption of complex of RAF-1 and p21 Ras” value was “did not disrupt; also recorded: unable to disrupt”. Also, the “inhibition of RAF-kinase activity” value with RAF-1 kinase is given as “not”.

B1: unmodified ovalbumin: ovalbumin (45 kDa) protein antigen, not conjugated (protein, UniProt P01012 2-386, looked up)
Ovalbumin: GSIGAASMEFCFDVFKELKVHHANENIFYCPIAIMSALAMVYLGAKDSTRTQINKVVRFDKLPGFGDSIEAQCGTSVNVHSSLRDILNQITKPNDVYSFSLASRLYAEERYPILPEYLQCVKELYRGGLEPINFQTAADQARELINSWVESQTNGIIRNVLQPSSVDSQTAMVLVNAIVFKGLWEKAFKDEDTQAMPFRVTEQESKPVQMMYQIGLFRVASMASEKMKILELPFASGTMSMLVLLPDEVSGLEQLESIINFEKLTEWTSSNVMEERKIKVYLPRMKMEEKYNLTSVLMAMGITDVFSSSANLSGISSAESLKISQAVHAAHAEINEAGREVVGSAEAGVDAASVSEEFRADHPFLFCIKHIATNAVLFFGRCVSP
Turning to B1, in the series on cytotoxic T-lymphocytes, the “stimulation of CTLs by APCs incubated with antigen” value is given as “failed to stimulate the CTLs”. Besides, the “albumin-specific CTL response in blood of mice” value with albumin-specific CTLs is “did not exhibit the albumin-specific CTL response”.

By Km is commonly meant the substrate concentration at which the rate is half of its maximum.
